What follows are compounds tested on HIV-1 subtype A strain 12RU 69831 (assay: Inhibition of HIV-1 reproduction / protection of infected MT-4 cells (living cell concentration, p24 production)). Conditions: Human immunodeficiency virus 1, MT4, MT-4 cells infected with HIV-1 at a constant virus dose of 300 CCID50; read-out: Activity against HIV-1 12RU 69831 strain (subtype A).
Type: cell-based
Procedure: Evaluation of HIV reproduction inhibition/protection of human cells by anti-HIV products of the present invention was conducted by measuring change in living cells concentration in experimental wells with MT-4 cells infected with HIV-1, as well as by the production of viral protein p24 with adding different concentrations of compounds according to the present invention. Antiviral activity of products against HIV-1 subtype A strain 12RU 69831 was determined, when the cell culture was infected with a constant dose of virus, corresponding to 300 CCID50.

Structure (SMILES) | IC50 [µM]
Cc1ccc(CN2CCc3nc(Nc4ccc(C#N)cc4)nc(Oc4c(C)cc(C#N)cc4C)c3CC2)o1 [BB0274073] | 57.4
Cc1cc(C#N)cc(C)c1Oc1nc(Nc2ccc(C#N)cc2)nc2c1CCN(C(=O)C1CCNCC1)CC2 [BB0274026, 4-((2-((4-Cyanophenyl)amino)-7-(piperidine-4-carbonyl)-6,7,8,9-tetrahydro-5H-pyrimido[4,5-d]azepine-4-yl)oxy)-3,5-dimethylbenzonitrile] | 0.364
Cc1cc(C#N)cc(C)c1Oc1nc(Nc2ccc(C#N)cc2)nc2c1CN(C(=O)[C@H](CCCCNC(=O)OC(C)(C)C)NC(=O)OC(C)(C)C)CC2 [BB0274130, (S)-Di-tert-butyl (6-(4-(4-cyano-2,6-dimethylphenoxy)-2-((4-cyanophenyl)amino)-7,8-dihydropyrido[4,3-d]pyrimidine-6(5H)-yl)-6-oxohexane-1,5-diyl)dicarbamate] | 240
Cc1cc(C=O)cc(C)c1Oc1nc(Nc2ccc(C#N)cc2)nc2c1CCN(C)C2 [BB0273775, 4-((4-(4-Formyl-2,6-dimethylphenoxy)-7-methyl-5,6,7,8-tetrahydro[3,4-d]pyrimidine-2-yl)amino)benzonitrile] | 295
Cc1cc(C#N)cc(C)c1Oc1nc(Nc2ccc(C#N)cc2)nc2c1CN(C(=O)c1cnccn1)CC2 [BB0274100, 4-((2-((4-Cyanophenyl)amino)-6-(pyrazine-2-carbonyl)-5,6,7,8-tetrahydropyrido[4,3-d]pyrimidine-4-yl)oxy)-3,5-dimethylbenzonitrile] | 33.8
Cc1cc(C#N)cc(C)c1Oc1nc(Nc2ccc(C#N)cc2)nc2c1CCN(C(=O)[C@H]1CCCN1C(=O)OC(C)(C)C)CC2 [BB0274064, (R)-Tert-butyl 2-(4-(4-cyano-2,6-dimethylphenoxy)-2-((cyanophenyl)amino)-6,7,8,9-tetrahydro-5H-pyrimido[4,5-d]azepine-7-carbonyl)pyrrolidine-1-carboxylate] | 493
Cc1cc(C#N)cc(C)c1Oc1nc(Nc2ccc(C#N)cc2)nc2c1CN(C(=O)[C@H](CC(C)C)NC(=O)OC(C)(C)C)CC2 [BB0274128, (S)-Tert-butyl (1-(4-(4-cyano-2,6-dimethylphenoxy)-2-((4-cyanophenyl)amino)-7,8-dihydropyrido[4,3-d]pyrimidine-6(5H)-yl)-4-methyl-1-oxopentane-2-yl)carbamate] | 113
Cc1cc(C#N)cc(C)c1Oc1nc(Nc2ccc(C#N)cc2)nc2c1CN(C(=O)C1CCCN1)CC2 (stereo not shown) [BB0274098, 4-((2-((4-Cyanophenyl)amino)-6-(pyrrolidine-2-carbonyl)-5,6,7,8-tetrahydropyrido[4,3-d]pyrimidine-4-yl)oxy)-3,5-dimethylbenzonitrile] | 0.046
CSCCC(NC(=O)OC(C)(C)C)C(=O)N1CCc2nc(Nc3ccc(C#N)cc3)nc(Oc3c(C)cc(C#N)cc3C)c2C1 (stereo not shown) [BB0274120, Tert-butyl (1-(4-(4-cyano-2,6-dimethylphenoxy)-2-((4-cyanophenyl)amino)-7,8-dihydropyrido[4,3-d]pyrimidine-6(5H)-yl)-4-(methylthio)-1-oxobutane-2-yl)carbamate] | 108
Cc1cc(C#N)cc(C)c1Oc1nc(Nc2ccc(C#N)cc2)nc2c1CCN(S(C)(=O)=O)CC2 [BB0274135, 4-((2-((4-Cyanophenyl)amino)-7-(methylsulfonyl)-6,7,8,9-tetrahydro-5H-pyrimido[4,5-d]azepine-4-yl)oxy)-3,5-dimethylbenzonitrile] | 6.13
Cc1cc(/C=C/C#N)cc(C)c1Oc1nc(Nc2ccc(C#N)cc2)nc2c1CCN(C(=O)OC(C)(C)C)CC2 [BB0274009, Tert-butyl 2-((4-cyanophenyl)amino)-4-(4-(2-cyanovinyl)-2,6-dimethylphenoxy)-8,9-dihydro-5H-pyrimido[4,5-d]azepine-7(6H)-carboxylate] | 291
Cc1cc(C#N)cc(C)c1Oc1nc(Nc2ccc(C#N)cc2)nc2c1CN(C(=O)[C@H](C)NC(=O)OC(C)(C)C)CC2 [BB0274101, (S)-Tert-butyl (1-(4-(4-cyano-2,6-dimethylphenoxy)-2-((4-cyanophenyl)amino)-7,8-dihydropyrido[4,3-d]pyrimidine-6(5H)-yl)-1-oxopropane-2-yl)carbamate] | 8.8
Cc1cc(C#N)cc(C)c1Oc1nc(Nc2ccc(C#N)cc2)nc2c1CCN(CC#N)CC2 [BB0274095, 4-((7-(cyanomethyl)-2-((4-cyanophenyl)amino)-6,7,8,9-tetrahydro-5H-pyrimido[4,5-d]azepine-4-yl)oxy)-3,5-dimethylbenzonitrile] | 11.3
Cc1cc(C#N)cc(C)c1Oc1nc(Nc2ccc(C#N)cc2)nc2c1CN(C(=O)[C@H](Cc1ccccc1)NC(=O)OC(C)(C)C)CC2 [BB0274103, (S)-Tert-butyl (1-(4-(4-cyano-2,6-dimethylphenoxy)-2-((4-cyanophenyl)amino)-7,8-dihydropyrido[4,3-d]pyrimidine-6(5H)-yl)-1-oxo-3-phenylpropane-2-yl)carbamate] | 228
Cc1cc(C#N)cc(C)c1Oc1nc(Nc2ccc(C#N)cc2)nc2c1CN(C(=O)CN)CC2 [BB0274051, 4-((6-(2-Aminoacetyl)-2-((4-cyanophenyl)amino)-5,6,7,8-tetrahydropyrido[4,3-d]pyrimidine-4-yl)oxy)-3,5-dimethylbenzonitrile] | 0.00552
Cc1cc(C2OCCCO2)cc(C)c1Oc1nc(Nc2ccc(C#N)cc2)nc2c1CCN(C(=O)OC(C)(C)C)CC2 [BB0273892] | 1220
COC(=O)N1CCc2nc(Nc3ccc(C#N)cc3)nc(Oc3c(C)cc(C#N)cc3C)c2CC1 [BB0274134, Methyl 4-(4-cyano-2,6-dimethylphenoxy)-2-((4-4-cyanophenyl)amino)-8,9-dihydro-5H-pyrimido[4,5-d]azepine-7(6H)-carboxylate] | 0.0959
Cc1cc(C#N)cc(C)c1Oc1nc(Nc2ccc(C#N)cc2)nc2c1CN(C(=O)C1CCCN1C(=O)OC(C)(C)C)CC2 (stereo not shown) [BB0274097, Tert-butyl 2-(4-(4-cyano-2,6-dimethylphenoxy)-2-((4-cyanophenyl)amino)-5,6,7,8-tetrahydropyrido[4,3-d]pyrimidine-6-carbonyl)pyrrolidine-1-carboxylate] | 664
Cc1cc(C#N)cc(C)c1Oc1nc(Nc2ccc(C#N)cc2)nc2c1CCN(C(=O)C1CCCN1C(=O)OC(C)(C)C)CC2 (stereo not shown) [BB0274063, Tert-butyl 2-(4-(4-cyano-2,6-dimethylphenoxy)-2-((cyanophenyl)amino)-6,7,8,9-tetrahydro-5H-pyrimido[4,5-d]azepine-7-carbonyl)pyrrolidine-1-carboxylate] | 230
Cc1cc(C#N)cc(C)c1Oc1nc(Nc2ccc(C#N)cc2)nc2c1CCN(C(=O)c1cccnc1)CC2 [BB0274012, 4-((2-((4-Cyanophenyl)amino)-7-nicotinoyl-6,7,8,9-tetrahydro-5H-pyrimido[4,5-d]azepine-4-yl)oxy)-3,5-dimethylbenzonitrile] | 5.81
Cc1cc(C#N)cc(C)c1Oc1nc(Nc2ccc(C#N)cc2)nc2c1CN(C(=O)C1CNC1)CC2 [BB0274099, 4-((6-(Azetidine-3-carbonyl)-2-((4-cyanophenyl)amino)-5,6,7,8-tetrahydropyrido[4,3-d]pyrimidine-4-yl)oxy)-3,5-dimethylbenzonitrile] | 0.152

Same assay, conditions: MT-4 cells infected with HIV-1 at a constant virus dose of 300 CCID50; read-out: Activity against HIV-1 12RU 69831 strain (subtype A)

Structure (SMILES) | IC50 [µM]
Cc1cc(C#N)cc(C)c1Oc1nc(Nc2ccc(C#N)cc2)nc2c1CCNCC2 [BB0273976, 4-((2-((4-Cyanophenyl)amino)-6,7,8,9-tetrahydro-5H-pyrimido[4,5-d]azepine-4-yl)oxy)-3,5-dimethylbenzonitrile] | 0.00583

— patent publication US12485121B2, “Antiviral agents for the treatment and prevention of HIV infection” (Pharmasyntez, Joint Stock Company, priority 2020, dated 2025)
